Laboratory results from US6867211B2, “4-Pyridyl-and 2,4-pyrimidinyl-substituted pyrrole derivatives and their use in pharmacy” (Merckle GmbH, priority 2000, dated 2005).
Read-outs that look alike come from different tables or passages of the source.

Experiments:
cyclooxygenase-1 = biological target: T1, cyclooxygenase-1 (Homo sapiens, UniProt P23219); experiment: In vitro test system for determining the inhibition of cyclooxygenase-1 (PGE2 from human platelets, calcium ionophore, ELISA); format: cell-based; settings: for IC50: human platelets, read-out: COX-1 IC50
T1 construct: endogenous in cells; host or cells: human platelets isolated on a discontinuous Percoll gradient
Procedure: In vitro Test System for Determining the Inhibition of Cyclooxygenase-1
In this test system, the amount of prostaglandin E2 formed from human platelets after addition of calcium ionophore is determined by means of ELISA. In this process, the platelets are obtained after centrifugation on a discontinuous Percoll® gradient. The enzyme reaction and the determination of the metabolites formed is carried out in principle as in the determination of 5-lipoxygenase inhibition. Differences exist with respect to the incubation time. Furthermore, the addition of a thromboxane synthesis inhibitor is necessary (see Arch. Pharm. Pharm. Med. Chem. 330, 307-312 (1997)).

IL-1β [1] = experiment: In vitro test procedure using human whole blood, LPS-stimulated, IL-1β by ELISA; format: cell-based; settings: Homo sapiens; whole-blood method
Procedure: (§1) In vitro Test Procedure Using Human Whole Blood
(§2) Human potassium-EDTA whole blood (at 400 μl) is preincubated with test substance for 15 min. at 37° C. in a CO2 incubator (5% CO2; 95% moisture-saturated air). The samples are then stimulated for 4 hours with 1 μg/ml of LPS (E. coli 026:B6) at 37° C. in a CO2 incubator (5% CO2; 95% moisture-saturated air). The reaction is ended by placing the samples on ice, addition of DPBS buffer and subsequent centrifugation (1000×g; 15 min). The plasma supernatant is used for the quantification of IL-1β and TNFα by means of ELISA.

IL-1β [2] = experiment: In vitro test procedure using PBMCs, LPS-stimulated, IL-1β by ELISA; format: cell-based; settings: Homo sapiens, PBMC
Procedure: (§3) In vitro Test Procedure Using PBMCs
(§4) The mononuclear cells (PBMCs) are isolated from human potassium-EDTA whole blood diluted 1:3 by means of density gradient centrifugation (Histopaque®-1.077). After 2 washing steps with DPBS buffer, the mononuclear cells are resuspended in macrophage-SFM medium and adjusted to a cell count of 1×10^6 cells/ml.
(§5) The PBMCs suspension (at 390 μl) is preincubated with test substance for 15 min at 37° C. in a CO2 incubator (5% CO2; 95% moisture-saturated air). The samples are subsequently stimulated for 4 hours with 1 μg/ml LPS (E.coli 026:B6) at 37° C. in a CO2 incubator (5% CO2, 95% moisture-saturated air). The reaction is ended by placing the samples on ice, addition of DPBS buffer and centrifugation (15880×g; 12 min). The supernatant is used for the quantification of IL-1β and TNFα by means of ELISA.

5-lipoxygenase = biological target: T2, 5-lipoxygenase (Homo sapiens, UniProt P09917); experiment: In vitro test system for determining the inhibition of 5-lipoxygenase (LTB4 from human granulocytes, A 23187, ELISA); format: cell-based; settings: human granulocytes; read-out: 5-LO IC50
T2 construct: Human granulocytes are used as a source of the 5-lipoxygenase; endogenous in cells; host or cells: human granulocytes isolated from heparinised blood on a Percoll gradient
T2 sequence (P09917 1-674): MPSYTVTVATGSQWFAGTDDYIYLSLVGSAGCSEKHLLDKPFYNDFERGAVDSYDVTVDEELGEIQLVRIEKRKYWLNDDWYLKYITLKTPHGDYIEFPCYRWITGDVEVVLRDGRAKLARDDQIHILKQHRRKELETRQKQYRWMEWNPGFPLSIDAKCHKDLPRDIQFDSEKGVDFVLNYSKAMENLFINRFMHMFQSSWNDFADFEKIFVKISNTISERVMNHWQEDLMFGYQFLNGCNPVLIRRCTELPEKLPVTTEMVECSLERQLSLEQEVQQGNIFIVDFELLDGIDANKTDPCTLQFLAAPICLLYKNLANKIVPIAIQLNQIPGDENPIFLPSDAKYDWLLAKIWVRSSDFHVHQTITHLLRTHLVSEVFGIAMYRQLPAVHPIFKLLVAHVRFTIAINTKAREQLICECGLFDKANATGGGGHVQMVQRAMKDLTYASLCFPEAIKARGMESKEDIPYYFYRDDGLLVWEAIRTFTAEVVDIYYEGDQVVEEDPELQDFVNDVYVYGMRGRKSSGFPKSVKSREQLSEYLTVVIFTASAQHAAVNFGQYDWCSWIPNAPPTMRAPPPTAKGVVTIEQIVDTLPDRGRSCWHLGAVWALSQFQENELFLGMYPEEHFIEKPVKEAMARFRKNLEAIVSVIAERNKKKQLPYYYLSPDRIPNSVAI
Procedure: In vitro Test System for Determining the Inhibition of 5-lipoxygenase
Human granulocytes are used as a source of the 5-lipoxygenase. LTB4 (leukotriene B4) is formed from endogenous arachidonic acid by means of stimulation with calcium ionophore A 23187. The granulocytes are isolated and the enzyme reaction is carried out according to known processes (see Arch. Pharm. Pharm. Med. Chem. 330, 307-312 (1997)).
The blood, which is protected from clotting with heparin, is centrifuged on a discontinuous Percoll® gradient and the granulocyte layer is pipetted off. After lysis of the erythrocytes, the granulocytes are washed a number of times and then adjusted to a specific cell count. The enzyme reaction is then started with calcium ionophore A 23187 in the presence or absence of the test substance after addition of Ca2+. The synthesis of the leukotrienes is stopped after 1.5 minutes. The samples are centrifuged off and the supernatant is diluted. LTB4 is determined quantitatively by means of ELISA.

TNFα [3] = experiment: In vitro test procedure using PBMCs, LPS-stimulated, TNFα by ELISA; format: cell-based; settings: Homo sapiens, PBMC; for inhibition at 1 µM: at 1 μmol; for inhibition at 10 µM: at 10 μmol
Procedure: as §3, §4, §5

TNFα [4] = experiment: In vitro test procedure using human whole blood, LPS-stimulated, TNFα by ELISA; format: cell-based; settings: Homo sapiens; whole-blood method
Procedure: as §1, §2

[5] = biological target: T3, COX2 (from sheep placenta) (Ovis aries, UniProt P79208); experiment: In vitro test system for determining the inhibition of cyclooxygenase-2 (COX2 from sheep placenta, PGE2 ELISA); format: biochemical; settings: read-out: COX-2 IC50
T3 construct: COX2 (from sheep placenta) is preincubated at 4° C. with test substance for 10 min; from tissue; host or cells: sheep placenta
T3 sequence (P79208 17-603): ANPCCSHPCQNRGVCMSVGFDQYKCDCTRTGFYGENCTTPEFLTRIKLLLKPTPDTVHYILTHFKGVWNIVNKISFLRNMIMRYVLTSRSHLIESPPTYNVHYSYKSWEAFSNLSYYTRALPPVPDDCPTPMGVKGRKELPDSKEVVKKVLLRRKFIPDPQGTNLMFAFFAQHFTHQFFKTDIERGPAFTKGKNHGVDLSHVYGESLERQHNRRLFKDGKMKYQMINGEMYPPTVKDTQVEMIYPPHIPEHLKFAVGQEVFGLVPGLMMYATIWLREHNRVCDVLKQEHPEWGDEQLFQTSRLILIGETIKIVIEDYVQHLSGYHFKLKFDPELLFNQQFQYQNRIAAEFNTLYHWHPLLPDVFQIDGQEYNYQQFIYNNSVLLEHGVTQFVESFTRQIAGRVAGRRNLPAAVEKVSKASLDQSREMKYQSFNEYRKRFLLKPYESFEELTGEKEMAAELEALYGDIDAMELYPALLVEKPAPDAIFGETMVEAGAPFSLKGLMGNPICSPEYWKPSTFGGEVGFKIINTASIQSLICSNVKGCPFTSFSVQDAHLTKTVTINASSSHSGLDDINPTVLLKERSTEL
Procedure: In vitro Test System for Determining the Inhibition of Cyclooxygenase-2
COX2 (from sheep placenta) is preincubated at 4° C. with test substance for 10 min, then stimulated with arachidonic acid (5 μM) at 25° C. for 10 min. […] The determination is carried out at 3 dilutions (10^−7, 10^−6, 10^−5 M). The PGE2 concentrations are quantified by means of ELISA (see Mitchell J. A. et al., Proc. Nat. Acad. Sci. 90: 11693-11697 (1993)).

[6] = biological target: T3, COX2 (from sheep placenta); experiment: as above; format: biochemical; settings: for IC50: value in COX-2 column
[7] = 4 h, read-out: TNFα percentage inhibition
[8] = at 10 μmol, cells marked 'PBMC:' / 'whole-blood method:'

T1 sequence (P23219 24-599): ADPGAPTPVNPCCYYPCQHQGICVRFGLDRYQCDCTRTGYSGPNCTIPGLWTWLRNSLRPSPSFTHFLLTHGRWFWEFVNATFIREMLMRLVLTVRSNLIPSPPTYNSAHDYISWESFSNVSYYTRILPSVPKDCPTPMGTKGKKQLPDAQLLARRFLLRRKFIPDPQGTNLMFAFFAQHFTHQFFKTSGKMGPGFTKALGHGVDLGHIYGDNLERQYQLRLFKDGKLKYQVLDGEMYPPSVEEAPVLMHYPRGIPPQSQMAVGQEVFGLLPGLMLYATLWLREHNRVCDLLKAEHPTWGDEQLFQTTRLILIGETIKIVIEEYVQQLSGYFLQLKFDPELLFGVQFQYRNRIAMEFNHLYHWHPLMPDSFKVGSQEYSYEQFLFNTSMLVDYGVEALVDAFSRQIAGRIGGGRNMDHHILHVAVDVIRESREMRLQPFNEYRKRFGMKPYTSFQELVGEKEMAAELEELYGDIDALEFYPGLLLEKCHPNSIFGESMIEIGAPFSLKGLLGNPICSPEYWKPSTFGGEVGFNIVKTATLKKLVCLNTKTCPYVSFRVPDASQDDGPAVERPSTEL

Q: What does the source list for Cc1c(-c2ccncc2)c(-c2ccc(F)cc2)n2c1CCC2 [Example 4, 5-(4-Fluorophenyl)-7-methyl-6-(4-pyridyl)-2,3-dihydro-1H-pyrrolizine]?
A: IC50 (cyclooxygenase-1): 1.9 µM; IC50 (IL-1β [1]): 59 µM; IC50 (IL-1β [2]): 5.7 µM; IC50 (5-lipoxygenase): 2.4 µM; IC50 (TNFα [3]): 6 µM; IC50 (TNFα [4]): 41 µM; IC50 [5]: 3.4 µM

Q: Which IC50 (IL-1β [1]) does the source give for OCc1c(-c2ccncc2)c(-c2ccc(F)cc2)n2c1CCC2 [Example 3, [3-(4-Fluorophenyl)-2-(4-pyridyl)-6,7-dihydro-5H-pyrrolizin-1-yl]methanol] here?
A: Its IC50 is 22 µM.

Q: What about the IC50 (IL-1β [2]) of the same molecule?
A: Its IC50 is 5 µM.

Q: And the IC50 (5-lipoxygenase)?
A: The IC50 was 3.7 µM.

Q: What about the IC50 (TNFα [3]) of the same molecule?
A: The IC50 was 4 µM.

Q: And the IC50 (TNFα [4])?
A: The IC50 was 28 µM.

Q: What about the IC50 [5] of the same molecule?
A: Its IC50 is 5.7 µM.

Q: Which results are given for CC1(C)CSc2c(-c3ccncc3)c(-c3ccc(F)cc3)cn2C1 [Example 23, 7-(4-Fluorophenyl)-3,3-dimethyl-8-pyridin-4-yl-3,4-dihydro-2H-pyrrolo[2,1-b][1,3]thiazine]?
A: COX-1 percentage inhibition (cyclooxygenase-1; at 1.0 μmol): 0%; COX-1 percentage inhibition (cyclooxygenase-1; at 10 μmol): 83%; IC50 (cyclooxygenase-1): 3.5 µM; inhibition at 1 µM (IL-1β [2]; 4 h, at 1 μmol, read-out: IL-1β percentage inhibition): 19%; IC50 (5-lipoxygenase): 0.05 µM; inhibition at 1 µM (TNFα [3]; [7]): 0%; inhibition at 10 µM (TNFα [3]; [7]): 79%; COX-2 percentage inhibition ([6]; at 1 μmol, cell marked 'PBMC:'): 10%; COX-2 percentage inhibition [6, 8]: 50%; IC50 ([6]; cell marked 'PBMC:'): 4 µM

Q: With CCOC(=O)c1c(-c2ccncc2)c(-c2ccc(F)cc2)n2c1SCC2 [Example 10A, Ethyl 5-(4-fluorophenyl)-6-(4-pyridyl)-2,3-dihydropyrrolo-[2,1-b]-thiazole-7-carboxylate] as the molecule, how does the IC50 (cyclooxygenase-1) read?
A: The IC50 was 3.4 µM.

Q: And the IC50 (IL-1β [1])?
A: Its IC50 is 30 µM.

Q: What about the IC50 (IL-1β [2]) of the same molecule?
A: Its IC50 is greater than 100 µM.

Q: And the IC50 (5-lipoxygenase)?
A: Its IC50 is 0.065 µM.

Q: And the IC50 (TNFα [3])?
A: Its IC50 is 10 µM.

Q: What about the IC50 (TNFα [4]) of the same molecule?
A: Its IC50 is 30 µM.

Q: And the IC50 [5]?
A: Its IC50 is 6.1 µM.

Q: For Fc1ccc(-c2c(-c3ccncc3)cc3n2CCCC3)cc1 [Example 18, 3-(4-Fluorophenyl)-2-(4-pyridyl)-5,6,7,8-tetrahydroindolizine], which COX-1 percentage inhibition (cyclooxygenase-1; at 10 μmol) is on record?
A: Its COX-1 percentage inhibition is 10/35%.

Q: And the IC50 (IL-1β [1])?
A: Its IC50 is 36 µM.

Q: What about the IC50 (IL-1β [2]) of the same molecule?
A: The IC50 was 7.5 µM.

Q: And the IC50 (5-lipoxygenase)?
A: The IC50 was 3.3 µM.

Q: And the inhibition at 0.1 µM (TNFα [3]; 4 h, at 0.1 μmol, read-out: TNFα percentage inhibition)?
A: The inhibition at 0.1 µM was 16%.

Q: And the inhibition at 1 µM (TNFα [3]; [7])?
A: The inhibition at 1 µM was 33%.

Q: And the inhibition at 10 µM (TNFα [3]; [7])?
A: Its inhibition at 10 µM is 65%.

Q: What about the IC50 (TNFα [4]) of the same molecule?
A: The IC50 was 37 µM.

Q: What about the IC50 [5] of the same molecule?
A: Its IC50 is 1.6 µM.

Q: How did the IC50 (cyclooxygenase-1) turn out when Cc1c(-c2ccc(F)cc2)c(-c2ccncc2)n2c1CCC2 [Example 21, 6-(4-Fluorophenyl)-7-methyl-5-(4-pyridyl)-2,3-dihydro-1H-pyrrolizine] was run?
A: Its IC50 is 0.13 µM.

Q: And the IC50 (IL-1β [1])?
A: Its IC50 is 37 µM.

Q: What about the IC50 (IL-1β [2]) of the same molecule?
A: The IC50 was 5.6 µM.

Q: And the IC50 (TNFα [3])?
A: The IC50 was 26 µM.

Q: What about the COX-2 percentage inhibition [6, 8] of the same molecule?
A: Its COX-2 percentage inhibition is 33%.

Q: What about the IC50 ([6]; cell marked 'PBMC:') of the same molecule?
A: Its IC50 is 0.34 µM.

Q: And the IC50 ([6]; cell marked 'whole-blood method:')?
A: The IC50 was 6 µM.
